1 sequence from patent publication US8691946B2, “Methods and compositions for soft tissue repair” (Affinergy, LLC, priority 2009, dated 2014) can be followed below.

Ends that are not written are not given here.

Test [1] relates to umbilical artery smooth muscle cells (UASMCs). The experiment in a line: Biotinylated peptide binding to endothelial and other cells by flow cytometry. To be noted: biotinylated peptide 10 μM. The protocol: (§1) The synthetic biotinylated binding peptide SEQ ID NO: 4 was further examined for its ability to bind endothelial cells compared to other cell types (see FIG. 16). […] ECFCs are clonally expanded cells isolated from human umbilical cord blood, and are considered highly proliferative endothelial progenitor cells (EPCs) based on their clonogenic and proliferative potential. In another experiment, binding peptide SEQ ID NO: 4 was assayed for its ability to selectively isolate endothelial cells versus smooth muscle cells in the presence of whole blood. HUVECs or UASMCs were incubated in the presence of medium containing 20% whole blood and binding peptide SEQ ID NO: 4-conjugated magnetic beads (via biotin-SA) for 30 min. The solutions containing the bead-peptide-cell complexes were then passed through a […] LS column in a magnetic field. The column was washed, and the remaining peptide-bound cells were then released from the magnetic field and counted.
(In flow cytometry, cells or beads pass a laser one at a time.)

Test [2] deals with human umbilical vein endothelial cells (HUVECs). Described as above. Conditions: biotinylated peptide 10 μM. The method, then: as §1
Test [3] concerns human MSCs. The experiment in a line: Capture of cultured MSCs on peptide-coated streptavidin microbeads (LS columns). It is filed as cell-based. Conditions: 160,000 cultured human MSCs. The method, then:
In this experiment the ability of the biotinylated cell binding peptide SEQ ID NO: 4 to capture human MSCs from a homogeneous cultured cell population was examined. The cell binding peptide SEQ ID NO: 4 was biotinylated as described herein at Example 2. The cell binding peptide SEQ ID NO: 4, and a non-binding control peptide, were added to separate 300 μl volumes of […] BIOTEC Streptavidin microbeads at a concentration of 20 μM. These beads are made from iron filings, coated with a dextran coating which is functionalized with streptavidin moieties. Peptide was incubated with beads for 45 min on ice. The 300 μl of peptide coated microbeads were added to pre-equilibrated LS columns outside of the magnetic field to evenly distribute the magnetic beads throughout the columns. Columns were then placed into a magnetic field, and excess peptide was washed away with buffer while retaining the peptide coated microbeads. Cultured and expanded human MSCs from bone marrow aspirate (160,000 cells; LONZA) were added to each LS column and allowed to pass through by gravity flow. Flowthrough was collected and cycled through the columns 5 times, after which the columns were washed with 5 ml buffer. […] The collected flowthrough with 5 ml wash and eluted cells were spun down, resuspended in a smaller volume, and counted by hemacytometer (see FIG. 17). […]

The subject of another test is peripheral blood cells. Put plainly: Biotinylated peptide binding to endothelial and other cells by flow cytometry. The arrangement: species or system human. Conditions: biotinylated peptide 10 μM. The protocol: as §1
The test system of test [4] is endothelial colony forming cells (ECFCs). Described as above. Conditions: biotinylated peptide 10 μM. The arrangement: species or system human. The method, then:
as §1

Test [5] relates to MSCs captured from bone marrow. Put plainly: Osteoblast differentiation of captured MSCs (Alizarin Red S). Type of test: cell-based. To be noted: 14 days osteoblast differentiation medium. The protocol: For osteogenic differentiation, the MSCs present in the […] column eluants (see Example 6) were cultured for 14 days in complete medium supplemented with 0.1 μM dexamethasone, 50 μM ascorbate-2-phosphate, 10 mM β-glycerophosphate, and 1% antibiotic/antimycotic. Calcium mineralization was measured by Alizarin Red S (SIGMA) staining to reveal mineralizing osteoblasts (see FIG. 26, panel C (undifferentiated MSCs) and panel D (osteoblast differentiated MSCs)).

Test [6] deals with human ASCs (adipose-derived mesenchymal stem cells). The experiment in a line: Biotinylated peptide binding by flow cytometry (Neutravidin-PE). Conditions: biotinylated peptide 25 μM, 30 min, 4° C. An excerpt: (§2) The synthetic biotinylated cell binding peptide SEQ ID NO: 4 was examined for its ability to specifically bind MSCs compared to a number of other cells types including adipose-derived mesenchymal stem cells (ASCs), dermal fibroblasts, rodent MSCs, red blood cells, monocytes, lymphocytes and granulocytes. The cell binding peptide was biotinylated as described herein at Example 2. Cultured cells of each type were either purchased (ASCs and dermal fibroblasts) or isolated from rodent bone marrow (rodent MSCs) or human blood. Cells were first harvested and resuspended at 10^6/mL in PBS+2% fetal bovine serum (FBS). An aliquot of cells (50 μL) was incubated in 50 μL of peptide solution (25 μM in PBS+FBS) for 30 min at 4° C. Cells were then washed twice in PBS+FBS with 300×g centrifugation for 5 min between washes. Fluorescently-tagged neutravidin (Neutravidin-PE from INVITROGEN) was then added to the cells to label biotinylated peptide bound to cells. Neutravidin-PE was diluted 1:250 from stock and applied at 50 μL to cells. Cells were then washed in PBS+FBS, and acquired on a BD […]. Peptide reactivity was then measured as percent positivity relative to Neutravidin-PE staining without the addition of biotinylated peptide.

Test [7] deals with human MSCs. The test is described as above. Conditions: biotinylated peptide 25 μM, 30 min, 4° C.
Description: as §2

In another test the test system is dermal fibroblasts. The description is as above. The arrangement: species or system human. Conditions: biotinylated peptide 25 μM, 30 min, 4° C.
Description: as §2

For test [8], the system named is MSCs captured from bone marrow. Put plainly: Chondrocyte differentiation of captured MSCs (aggrecan immunostaining). Type of test: cell-based. To be noted: 24 days CHONDRODIFF medium. The method, then:
To examine chondrocyte differentiation, the MSCs present in the […] column eluants (see Example 6) were pelleted by centrifugation at 150×g for 5 minutes. Cells were washed once with 1 ml MACS NH CHONDRODIFF Medium without disturbing the pellet. Cells were spun again and 1 mL CHONDRODIFF Medium was added to each pellet. Every third day, medium was aspirated and replaced with fresh pre-warmed medium. After 24 days in culture, cells exposed to CHONDRODIFF medium formed cartilage plugs or nodules, whereas control cells formed only loose or small nodules. Cells were washed once with PBS and fixed in neutral buffered formalin overnight. Sections were embedded in paraffin and sectioned at 5 microns. Sections were examined by hemotoxylin and eosin staining (data not shown). Sections were further examined by immunostaining for aggrecan, a major structural component of cartilage. In FIG. 27, sections from the periphery (panels A and B) or center (panels C and D) were incubated with an antibody against aggrecan (ABCAM) (panels B and D) or with secondary detection reagents only as a control (panels A and C), then counterstained with DAPI to reveal cell nuclei. […] Control images of captured cells grown in the absence of differentiation medium could not be taken due to the small and loose nature of nodules.

For the next test, the system named is HUVECs. Put plainly: Endothelial cell phenotype and anti-thrombogenic protein secretion (flow cytometry, ELISA). Conditions: HUVECs on collagen with 10 μM free peptide, 24 hours. It is filed as cell-based, human. The protocol: Once immobilized on a vascular graft, endothelial cells must retain their characteristic properties of promoting endothelialization. Therefore, the phenotype, viability, and anti-thrombogenic protein expression profiles were evaluated for endothelial cells in the presence of collagen modified with the endothelial cell binding peptide SEQ ID NO: 4 (generated according to Example 7 using BS^3 reagent). […] Specifically, HUVECs were plated on SEQ ID NO: 4 peptide-modified collagen, collagen with 10 μM free SEQ ID NO: 4 peptide or collagen alone for 24 hours. Flow cytometry was performed using a BD […], and ELISAs were performed according to manufacturers instructions. (FIGS. 22A & 22B). Tissue-type Plasminogen Activator (t-PA) and 6-keto Prostaglandin F1a protein expression levels secreted in this assay are aligned with other reports on cultured HUVECS (Kimura and Yokoi-Hayashi, Biochim Biophys Acta, 1996, 1310:1-4; Merhi-Soussi et al., J Leukoc Biol, 2000, 68:881-9).

In a further test the test system is HUVECs or UASMCs. Put plainly: Selective isolation of endothelial versus smooth muscle cells with peptide-conjugated magnetic beads in whole blood. Conditions: medium containing 20% whole blood, 30 min. Type of test: cell-based, human. The protocol: as §1
In test [9] the test system is MSCs captured from bone marrow. Put plainly: Adipocyte differentiation of captured MSCs (Oil Red O). It is filed as cell-based. Conditions: 21 days adipocyte differentiation medium. The protocol:
After capture of MSCs using cell binding peptide SEQ ID NO: 4 with the […] magnetic system according to Example 6, the ability of the captured cells to differentiate into an adipocyte lineage was examined. The MSCs present in the […] column eluants (see Example 6) were cultured for 21 days in complete medium (DMEM, 10% FBS, 100 units/mL penicillin, 100 μg/mL streptomycin, and 2 mM glutamine) supplemented with 0.5 mM isobutyl methylxanthine, 1 μM dexamethasone, 10 μM insulin, 200 μM indomethacin, and 1% antibiotic/antimycotic. Following the 21 day incubation, the cells were fixed in 4% paraformaldehyde in PBS for 15 minutes, washed in 60% isopropanol for 5 minutes, and stained with Oil Red O (SIGMA) for 10 minutes to determine the extent of adipogenesis (see FIG. 26, panels A (undifferentiated MSCs) and panel B (adipocyte differentiated MSCs)). The image of the adipose differentiated cells (FIG. 26, panel B) contains a larger magnification inset where the lipid vacuoles are clearly visible.

Test [10] relates to MSCs from bone marrow aspirate. The experiment in a line: Capture of MSCs from bone marrow aspirate with biotinylated peptide and magnetic beads (CFU). It is filed as cell-based. The protocol: This experiment was performed to examine the ability of cell binding peptide SEQ ID NO: 4 to capture MSCs directly from bone marrow aspirate in comparison to two separate antibodies against the CD105 I antigen (CD105) and the MSCA-1 stem cell antigen (MSCA-1). This experiment employed biotinylated peptides with streptavidin-coated […] magnetic beads. The peptides were biotinylated as described herein at Example 2. […] For the antibody capture experiment, magnetic beads having covalently attached CD105 or MSCA-1 antibody were employed ([…]). Prior to incubation with the peptides and antibodies, bone marrow aspirate (BMA) was mixed with 5 volumes of 10 mM ammonium chloride for 1-2 min at room temperature to lyse red blood cells. The lysate was centrifuged for 5 min at 300×g and the supernatant discarded. The cell pellet was washed with wash buffer (PBS+0.5% bovine serum albumin+0.5 mM EDTA) and cells were resuspended in […] peptide at a concentration of 10^8 per mL. For peptide binding studies, the cell suspension was incubated with the biotinylated peptides for 30 min at 4° C. to allow for binding. After incubation, cells were spun down at 300×g for 5 min, and peptide solution was aspirated. Cells were then rinsed twice with wash buffer, with centrifugation between washes. […] Colony forming units (CFUs) were counted after 14 days in culture. […]

For the sequence “SSFWDVCQGDGTCYGGGSR (not fully specified; cysteine pairing not given here) [SEQ ID NO: 4, tested biotinylated (C-terminal GSSGK(biotin)) or attached to substrates via spacer and lysine]”, the “cross-reactivity with UASMCs” value in test [1] was “weakly”. Further, the “cross-reactivity with HUVECs” value in [2] was “cross-reacted strongly”. Besides, in the test on human MSCs [3], the “capture of MSCs” value was “approximately 70%”. In addition, the “cross-reactivity with peripheral blood cells” value in the test with peripheral blood cells was “no cross-reactivity”. Also, the “cross-reactivity with ECFCs” value in test [4] is “cross-reacted strongly”. The “osteogenic differentiation of captured MSCs” value in [5] is recorded as “osteogenic pathway remains intact”. The “binding to human ASCs” value in [6] is “high binding”. In addition, in the test on human MSCs [7], the “binding to human MSCs (percent positivity relative to Neutravidin-PE alone)” value is reported as “high binding”. For the same sequence, the “binding to dermal fibroblasts” value with dermal fibroblasts is reported as “high binding”. Further, the “aggrecan in nodules formed from captured MSCs” value in [8] is “aggrecan could be detected”. Also, the “endothelial cell phenotype and anti-thrombogenic protein secretion” value in the test with HUVECs is “maintained their endothelial cell phenotype and their ability to secrete anti-thrombogenic proteins”. The “HUVECs isolated compared to UASMCs” value in the test on HUVECs or UASMCs was determined as 8 fold. The “adipogenesis of captured MSCs” value in [9] is “adipogenesis pathway remains intact”. Besides, the “MSC capture from bone marrow aspirate (CFUs after 14 days)” value in [10] (compared with CD105 and MSCA-1 antibody beads) was “as efficient as capture by either of the CD105 or MSCA-1 antibodies”. Further, the “immunoreactivity of captured cells (CD29, CD44, CD73, CD105, CD166, CD90, CD45, CD34)” value in test [10] (compared with CD105 isolated cells) is listed as “no changes were observed”.
